Where two headings read alike, the source gives them in different places. Ends that are not written are not given here.
Key:
ACE [1] = biological target: T1, ACE (Oryctolagus cuniculus, UniProt P12822); experiment: ACE inhibition kinetics (Lineweaver-Burk plots); assay type: biochemical, rabbit; details: GPPGPPGL 0–100 μM, HHL 2 to 5 mM
T1 construct: ACE (≥2.0 U/mg, rabbit lung) was purchased; purchased Shanghai Yuanye Biotechnology Co., Ltd. (Shanghai, China); host or cells: rabbit lung (tissue-derived)
T1 sequence (P12822 34-1310): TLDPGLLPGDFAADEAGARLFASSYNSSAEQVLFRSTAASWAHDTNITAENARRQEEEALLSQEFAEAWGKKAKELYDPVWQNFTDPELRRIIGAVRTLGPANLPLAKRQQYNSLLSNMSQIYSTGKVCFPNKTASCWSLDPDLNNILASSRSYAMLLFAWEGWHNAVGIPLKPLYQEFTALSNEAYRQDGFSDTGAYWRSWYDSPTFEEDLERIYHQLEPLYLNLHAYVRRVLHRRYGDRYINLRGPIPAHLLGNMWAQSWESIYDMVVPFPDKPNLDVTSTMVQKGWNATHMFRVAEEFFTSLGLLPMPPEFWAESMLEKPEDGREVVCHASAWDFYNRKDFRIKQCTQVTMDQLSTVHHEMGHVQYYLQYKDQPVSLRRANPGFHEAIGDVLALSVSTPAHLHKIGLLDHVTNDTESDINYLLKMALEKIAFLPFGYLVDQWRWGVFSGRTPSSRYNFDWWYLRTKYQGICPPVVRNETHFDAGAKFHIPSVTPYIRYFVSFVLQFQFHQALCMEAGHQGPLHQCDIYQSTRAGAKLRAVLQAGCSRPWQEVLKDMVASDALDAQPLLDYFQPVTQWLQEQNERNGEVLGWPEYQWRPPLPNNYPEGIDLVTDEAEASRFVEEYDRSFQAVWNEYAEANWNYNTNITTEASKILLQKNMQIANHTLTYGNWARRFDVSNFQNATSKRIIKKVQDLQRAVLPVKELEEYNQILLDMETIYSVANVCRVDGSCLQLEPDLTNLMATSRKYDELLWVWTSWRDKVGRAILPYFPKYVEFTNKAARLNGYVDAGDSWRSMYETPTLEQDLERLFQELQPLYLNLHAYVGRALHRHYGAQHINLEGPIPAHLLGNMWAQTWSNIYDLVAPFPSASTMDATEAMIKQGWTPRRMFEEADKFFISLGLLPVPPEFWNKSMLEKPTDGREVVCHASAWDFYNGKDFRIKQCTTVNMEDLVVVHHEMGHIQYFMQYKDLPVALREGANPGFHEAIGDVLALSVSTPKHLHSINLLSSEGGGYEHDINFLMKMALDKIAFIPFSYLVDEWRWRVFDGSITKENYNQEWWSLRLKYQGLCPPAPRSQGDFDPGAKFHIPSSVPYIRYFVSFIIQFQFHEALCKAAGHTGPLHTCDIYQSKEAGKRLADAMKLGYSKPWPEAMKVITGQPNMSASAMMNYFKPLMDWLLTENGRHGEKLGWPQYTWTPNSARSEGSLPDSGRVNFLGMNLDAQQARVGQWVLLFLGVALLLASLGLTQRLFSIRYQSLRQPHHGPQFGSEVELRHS
Procedure: The ACE inhibition kinetics of the chosen peptides were determined using the method of previous research ([20]), using Lineweaver–Burk plots. The measurement of ACE activity was conducted at different concentrations of peptides, and HHL concentrations ranging from 2 to 5 mM were included. The Michaelis–Menten kinetic equation was used to compute the Michaelis–Menten constant (Km) and maximum reaction rate (Vmax) using data obtained from the Lineweaver–Burk plots.

ACE [2] = details: read-out: IC50 (blood pressure lowering peptide, ACE), cited from earlier work
Text: There were various peptides derived from food that are recognized for their ability to inhibit ACE activity, potentially leading to a reduction in blood pressure levels in vivo ([6]).

[3] = from conger eel (Conger myriaster); read-out: IC50 (anti-oxidative effects); cited from earlier work
Text: Anguilla japonica, also known as eel, is a type of aquatic food that contains high levels of protein, fat, vitamin A, vitamin E, and other nutrients ([11]). It is particularly abundant in collagen. Eel processing is mainly based on grilled eel, most of which is exported abroad. During the eel processing of eels, various by-products such as fish heads and bones are generated. These by-products are mainly used in the production of animal feed or discarded. Eel bones have approximately 13.25% of protein, 19.18% of lipid, 5.63% of ash, and 56.96% of moisture content ([12]). Some bioactive peptides ...

GPPGPPGL [GPPGPPGL]
Km with increasing peptide level (ACE [1]): increase

Gln-Val-Glu-Tyr [literature peptide from Gracilariopsis lemaneiformis]
IC50 (ACE [2]; from Gracilariopsis lemaneiformis): 474 µM

Ile-Pro-Ile-Lys [literature peptide from Euphausia superba]
IC50 (ACE [2]; from Euphausia superba): 57.4 µM

LGLNGDDVN [literature anti-oxidative peptide from conger eel (Conger myriaster)]
IC50 [3]: 78.5 µM

Trp-Pro-Met-Gly-Phe [literature peptide from Cyclina sinensis]
IC50 (ACE [2]; from Cyclina sinensis): 789 µM

From article PMC11655196, “Angiotensin-I-converting enzyme inhibitory peptides from eel (Anguilla japonica) bone collagen: preparation, identification, molecular docking, and protective function on HUVECs” (Frontiers in Nutrition, 2024)
